# Assay results reported in patent US11040954B1, “CXCR3 receptor agonists” (RECEPTOS LLC, priority 2016, dated 2021).
# Assays:
# CXCR3 = molecular target: T1, CXCR3 (Homo sapiens, UniProt P49682); assay: CXCR3 cAMP agonist assay (cAMP Hunter CHOK1 CXCR3 Gi cell line, forskolin-stimulated, HitHunter cAMP detection); type: cell-based; settings: cAMP Hunter CHOK1 CXCR3 Gi cells, 20 μM forskolin, 30 minutes; read-out: Activity (CXCR3 cAMP agonist assay compound EC50)
# T1 construct: host or cells: CHO-K1 (cAMP Hunter CHOK1 CXCR3 Gi cell line)
# T1 sequence (P49682 1-368): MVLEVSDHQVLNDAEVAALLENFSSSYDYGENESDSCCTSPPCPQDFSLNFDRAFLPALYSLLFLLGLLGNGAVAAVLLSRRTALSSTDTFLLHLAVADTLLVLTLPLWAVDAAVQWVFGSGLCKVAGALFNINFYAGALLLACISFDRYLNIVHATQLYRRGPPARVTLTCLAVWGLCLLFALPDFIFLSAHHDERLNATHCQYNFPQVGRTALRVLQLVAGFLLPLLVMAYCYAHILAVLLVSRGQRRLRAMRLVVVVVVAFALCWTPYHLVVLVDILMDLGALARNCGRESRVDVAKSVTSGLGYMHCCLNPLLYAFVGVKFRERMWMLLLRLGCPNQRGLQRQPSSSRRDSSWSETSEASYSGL
# Method in brief: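 CHOK1 cells expressing human CXCR3 with Gi coupling, 50,000/well in suspension in HBSS/10 mM HEPES/0.1% BSA pH 7.4, were co-treated with 20 μM forskolin and compound (12-point, 0-10 μM, 1% DMSO) for 30 min. cAMP was read by enzyme-complementation luminescence; CXCL11 dose response set maximum efficacy.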
# [1] = Mouse pharmacokinetics after oral gavage, plasma drug concentration by LC-MS/MS (BALB/c); type: in vivo; settings: 10 mg/kg, male mice; for Cmax / AUC(0-t): mouse, plasma; for AUC(0-t): read-out: AUC0-24
# Procedure: (§1) Compounds were formulated in 5% DMSO/5% Tween20 in H2O, sonicated, vortexed, and put on stir plate overnight at a dose volume of 10 mL/kg. Balb/C (Jackson laboratories) or C57bl/6 (Taconic Biosciences) mice (8-9 weeks old) were acclimated to the colony for 3 days prior to dosing. Water and food were provided ab libitum. Compounds were administered by oral gavage. Groups of six animals received 3 to 4 bleeds per day with one terminal bleed. The time points were 30 min, 1 h, 2 h, 4 h, 6 h, 8 h, 24 h. Plasma was collected via centrifugation and analyzed for drug concentrations.
# (§2) Preparation of Study Samples and Standards for Analysis by LC-MS/MS
# (§3) 50 μl of plasma was aliquoted into a 96 well deep-well polypropylene plate (2 mL) to which 5 μL of DMSO was added. For standards, 5 μl of test compound in DMSO at […] the standard concentration was added to 50 μl of blank matrix in a 96 well deep-well polypropylene plate. For example, for a 300 nM standard, the 10× DMSO concentration was 3 μM. Study samples that require dilution are diluted with the appropriate blank matrix. For example, for a 10× dilution, 5 μL of study sample is added to 45 μl of blank matrix. Protein was precipitated from study samples and standards with the addition of 150 μl of acetonitrile. After a clean plate map was placed firmly over the top of the 96-well plate, a bench top shaker was used for 1 min to ensure complete precipitation of protein. The precipitated protein was pelleted by centrifuging for 3,000 rpm for 10 min at 20° C. and then the clear supernatant was transferred to a clean 96-well plate and spun again under the same conditions in order to pellet any solid material that may have been transferred.
# (§4) Analysis of Study Samples and Standards with LCMS with MRM Detection
# (§5) An Agilent 1200 HPLC with binary pump and a Leap CTC with fast wash autosampler were used to introduce samples to the mass spectrometer.
# (§6) The column used was a Phenomenex Luna C8 30×2 mm 5 μm with a security guard. Mass detection was performed by an Applied Biosystems 4000 Qtrap in MRM mode and ionization was achieved by positive electrospray with a source temperature of 500° C. The ion transitions, […] potential and collision energies were dependent on the specific analyte.
# (§7) Prepared samples were usually analyzed in reverse chronological order with bracketing standard curves. Typically at least 6 standards were used for quantification with a percent accuracy of +/−15% for all standards except at the LLOQ where a percent accuracy of +/−20% was allowed. The concentration time profile was fit using a one compartment model for the applicable mode of dosing using Phoenix WinNonLin 6.4.
# [2] = Mouse pharmacokinetics after oral gavage, plasma drug concentration by LC-MS/MS (C57BL/6); type: in vivo, C57bl/6 mice; settings: for Cmax / AUC(0-t): mouse, plasma; for AUC(0-t): read-out: AUC0-24
# Procedure: as §1, §2, §3, §4, §5, §6, §7
SMILES,EC50 (CXCR3) [nM],apparent oral clearance (CL/F) [1],Cmax [1] [nM],AUC(0-t) [1] [µM·h],"apparent oral clearance (CL/F) ([2]; C57BL/6, 10 mg/kg, male mice)","Cmax ([2]; C57BL/6, 10 mg/kg, male mice) [nM]","AUC(0-t) ([2]; C57BL/6, 10 mg/kg, male mice) [µM·h]",also measured
Cc1c(Cl)ccc(NC(=O)[C@H](CCN)NC(=O)[C@@H]2Cc3ccccc3CN2C(=O)CCC(=O)c2ccccc2)c1C [Compound 2-26],< 50,76 mL/min/kg,900,3.8,–,–,–,–
NCCCC[C@H](NC(=O)[C@@H]1Cc2ccccc2CN1C(=O)CCC(=O)c1ccccc1)C(=O)Nc1ccc(Cl)c(F)c1 [Compound 1-20],50 to 250,527 mL/min/kg,230,0.53,–,–,–,–
Cc1cccc(NC(=O)[C@H](CCN)NC(=O)[C@@H]2Cc3ccccc3CN2C(=O)CCC(=O)c2ccccc2)c1 [Compound 2-5],< 50,389 mL/min/kg,500,0.8,–,–,–,–
"NCC[C@H](NC(=O)[C@@H]1Cc2ccccc2CN1C(=O)CCC(=O)c1ccccc1)C(=O)Nc1ccc(Cl)c(Cl)c1 [Compound 2-1, (S)—N—((S)-4-amino-1-((3,4-dichlorophenyl)amino)-1-oxobutan-2-yl)-2-(4-oxo-4-phenylbutanoyl)-1,2,3,4-tetrahydroisoquinoline-3-carboxamide]",50 to 250,66 mL/min/kg,1800,4.3,–,–,–,–
Cc1cc(Cl)c(Cl)cc1NC(=O)[C@H](CCN)NC(=O)[C@@H]1Cc2ccccc2CN1C(=O)CCC(=O)c1ccccc1 [Compound 2-21],< 50,65 mL/min/kg,900,4.3,–,–,–,–
NCCCC[C@H](NC(=O)[C@@H]1Cc2ccccc2CN1C(=O)CCC(=O)c1ccccc1)C(=O)Nc1ccc(F)c(C(F)(F)F)c1 [Compound 1-26],< 50,–,3,0.006,–,–,–,–
Cc1cc(NC(=O)[C@H](CCN)NC(=O)[C@@H]2Cc3ccccc3CN2C(=O)CCC(=O)c2ccccc2)c(Cl)cc1Cl [Compound 2-22],< 50,10 mL/min/kg,4200,27,19 mL/min/kg,2900,15.1,–
Cc1cc(NC(=O)[C@H](CCN)NC(=O)[C@@H]2Cc3ccccc3CN2C(=O)CCC(=O)c2ccccc2)c(C)cc1Cl [Compound 2-19],< 50,59 mL/min/kg,1300,4.9,–,–,–,–
Cc1cc(NC(=O)[C@H](CCNC(C)C)NC(=O)[C@@H]2Cc3ccccc3CN2C(=O)CCC(=O)c2ccccc2)ccc1Cl [Compound 8-3],< 50,56 mL/min/kg,800,4.9,246 mL/min/kg,330,1.2,–
Cc1cc(NC(=O)[C@H](CCCCNC(C)C)NC(=O)[C@@H]2Cc3ccccc3CN2C(=O)CCC(=O)c2ccccc2)ccc1Cl [Compound 4-6],< 50,158 mL/min/kg,1200,1.7,2346 mL/min/kg,70,0.11,–
Cc1ccc(NC(=O)[C@H](CCN)NC(=O)[C@@H]2Cc3ccccc3CN2C(=O)CCC(=O)c2ccccc2)cc1C(F)(F)F [Compound 2-7],< 50,86 mL/min/kg,1900,3.3,–,–,–,–
NCC[C@H](NC(=O)[C@@H]1Cc2ccccc2CN1C(=O)CCC(=O)c1ccccc1)C(=O)Nc1ccc(Cl)c(Cl)c1F [Compound 2-24],< 50,23 mL/min/kg,3300,12.3,38 mL/min/kg,1000,7,"apparent oral clearance (CL/F) ([2]; C57BL/6, 60 mg/kg, male mice): 58 mL/min/kg; Cmax ([2]; C57BL/6, 60 mg/kg, male mice): 3000 nM; AUC(0-t) ([2]; C57BL/6, 60 mg/kg, male mice): 29 µM·h"
Cc1cc(NC(=O)[C@H](CCCN)NC(=O)[C@@H]2Cc3ccccc3CN2C(=O)CCC(=O)c2ccccc2)ccc1Cl [Compound 4-3],< 50,4627 mL/min/kg,30,0.06,–,–,–,–
Cc1cc(NC(=O)[C@H](CCN)NC(=O)[C@@H]2Cc3ccccc3CN2C(=O)CCC(=O)c2ccccc2)c(F)cc1Cl [Compound 2-18],< 50,47 mL/min/kg,2900,6.2,–,–,–,–
Cc1ccc(NC(=O)[C@H](CCN)NC(=O)[C@@H]2Cc3ccccc3CN2C(=O)CCC(=O)c2ccccc2)cc1C [Compound 2-3],< 50,403 mL/min/kg,400,0.8,–,–,–,–
CNCCCC[C@H](NC(=O)[C@@H]1Cc2ccccc2CN1C(=O)CCC(=O)c1ccccc1)C(=O)Nc1ccc(Cl)c(C)c1 [Compound 4-4],< 50,–,20,0.03,–,–,–,–
Cc1cc(NC(=O)[C@H](CCN)NC(=O)[C@@H]2Cc3ccccc3CN2C(=O)CCC(=O)N2CCCC(C)(C)C2)ccc1Cl [Compound 12-88],< 50,–,–,–,–,–,–,"apparent oral clearance (CL/F) ([2]; C57BL/6, 60 mg/kg, female mice): 280 mL/min/kg; Cmax ([2]; C57BL/6, 60 mg/kg, female mice): 3100 nM; AUC(0-t) ([2]; C57BL/6, 60 mg/kg, female mice): 6 µM·h"
N=C(N)NCCC[C@H](NC(=O)[C@@H]1Cc2ccccc2CN1C(=O)CCC(=O)c1ccccc1)C(=O)NCC1CCCCC1 [A],–,BQL,4,–,BQL,2,–,"AUC0-24 [1]: BLQ; AUC0-24 ([2]; C57BL/6, 10 mg/kg, male mice): BQL"
Cc1cc(NC(=O)[C@@H](NC(=O)[C@@H]2Cc3ccccc3CN2C(=O)CCC(=O)c2ccccc2)C2CCN(C(C)C)CC2)ccc1Cl [Compound 8-2],< 50,–,–,–,112 mL/min/kg,710,2.3,–
Cc1cc(NC(=O)[C@H](CCN)NC(=O)[C@@H]2Cc3ccccc3CN2C(=O)CCC(=O)N(C)CC(C)(C)C)ccc1Cl [Compound 12-114],< 50,–,–,–,–,–,–,"apparent oral clearance (CL/F) ([2]; C57BL/6, 60 mg/kg, female mice): 823 mL/min/kg; Cmax ([2]; C57BL/6, 60 mg/kg, female mice): 600 nM; AUC(0-t) ([2]; C57BL/6, 60 mg/kg, female mice): 2.1 µM·h"
Cc1c(NC(=O)[C@H](CCCCN)NC(=O)[C@@H]2Cc3ccccc3CN2C(=O)CCC(=O)c2ccccc2)ccc(Cl)c1Cl [Compound 1-25],< 50,782 mL/min/kg,70,0.34,–,–,–,–
NCCCC[C@H](NC(=O)[C@@H]1Cc2ccccc2CN1C(=O)CCC(=O)c1ccccc1)C(=O)NCC(c1ccccc1)c1ccccc1 [B],–,BQL,7,–,9000 mL/min/kg,30,0.029,AUC0-24 [1]: BLQ
Cc1c(NC(=O)[C@H](CCN)NC(=O)[C@@H]2Cc3ccccc3CN2C(=O)CCC(=O)c2ccccc2)ccc(Cl)c1Cl [Compound 2-15],< 50,–,–,–,37 mL/min/kg,970,7.5,–
